The values that follow come from US12285503B2, “Methods and reagents for tumor targeting with greater efficacy and less toxicity” (CORNELL UNIVERSITY, priority 2017, dated 2025).

For series [1], the target named is T1, PSMA (Homo sapiens, UniProt Q04609).
T1 construct: when treating prostate cancer patients with PSMA-617-Ac^225 has been reported; host or cells: prostate cancer patients (Kratochwil et al., J. Nucl. Med. 2017)
Conditions: cited from earlier work.

Series [2] deals with T1, PSMA. The series is described as follows: PSA declines as indication of anti-tumor activity in patients. The format is in vivo. An excerpt: J591-Lu^177 begins to induce PSA declines, as an indication of anti-tumor activity, at an administered ^177Lu dose of ≤30 mCi/m^2 given twice at a 2 week interval. As the dose is increased to 140, 160 and 180 mCi [total], the magnitude of the PSA/anti-tumor response gets progressively greater.
PSMA-617/ligand-Lu^177 begins to induce PSA declines at an administered cumulative ^177Lu dose of 300 mCi (11.1 Gbq) given in a 2-dose regimen at a 2 week interval (150 mCi×2). As the dose is increased to 2-dose totals of 400-500 mCi (14.8-18.5 GBq), the magnitude of the PSA/anti-tumor response gets progressively greater.

For series [3] the following is noted: limit to the kidney and salivary glands; cited from earlier work.
The target of series [4] is T1, PSMA. Briefly: Normal tissue bio-distribution / organ radioactive dose of PSMA-targeting agents in patients. In kind it is in vivo. An excerpt: While the two different classes of agents both bind to their target (e.g., PSMA, SSTR-2, CD20, etc)-expressing tumor cells, the normal tissues that get targeted differs between classes of agents. As an example, PSMA is expressed not only by prostate cancer cells but also by the normal parotid and other salivary glands, lacrimal glands, kidney and small bowel (See FIGS. 4-7). […] With both types of agents, the tumor sites are targeted, but the normal tissues that are targeted are different and virtually mutually exclusive.

In another series the test system is LNCaP cells. The series is described as follows: Internalization assay, LNCaP cells. In kind it is cell-based. The settings on record: 1 hour at 37° C. On the procedure:
(§1) Internalization assay. LNCaP and CWR22Rv1 cells were trypsinized and aliquoted into tubes at 1×10^6 cells per tube. Cells were washed once with RPMI (no FBS). ^177Lu-J591 (150,000 CPM) in […] RPMI (no FBS) per tube and/or ^177Lu-PSMA-617 (110,000 CPM) was added in […] RPMI (no FBS) per tube. The samples were incubated for 1 hour at 37° C., with the cells re-suspended every 15 minutes. After incubation, the cells were washed twice with 0.1% BSA/PBS to remove unbound/un-internalized binding agents. Samples were counted.

The next series concerns CWR22Rv1 cells. The series is described as follows: Internalization assay, CWR22Rv1 cells. The settings on record: 1 hour at 37° C. The format is cell-based. On the procedure:
as §1

T1 sequence (Q04609 whole entry): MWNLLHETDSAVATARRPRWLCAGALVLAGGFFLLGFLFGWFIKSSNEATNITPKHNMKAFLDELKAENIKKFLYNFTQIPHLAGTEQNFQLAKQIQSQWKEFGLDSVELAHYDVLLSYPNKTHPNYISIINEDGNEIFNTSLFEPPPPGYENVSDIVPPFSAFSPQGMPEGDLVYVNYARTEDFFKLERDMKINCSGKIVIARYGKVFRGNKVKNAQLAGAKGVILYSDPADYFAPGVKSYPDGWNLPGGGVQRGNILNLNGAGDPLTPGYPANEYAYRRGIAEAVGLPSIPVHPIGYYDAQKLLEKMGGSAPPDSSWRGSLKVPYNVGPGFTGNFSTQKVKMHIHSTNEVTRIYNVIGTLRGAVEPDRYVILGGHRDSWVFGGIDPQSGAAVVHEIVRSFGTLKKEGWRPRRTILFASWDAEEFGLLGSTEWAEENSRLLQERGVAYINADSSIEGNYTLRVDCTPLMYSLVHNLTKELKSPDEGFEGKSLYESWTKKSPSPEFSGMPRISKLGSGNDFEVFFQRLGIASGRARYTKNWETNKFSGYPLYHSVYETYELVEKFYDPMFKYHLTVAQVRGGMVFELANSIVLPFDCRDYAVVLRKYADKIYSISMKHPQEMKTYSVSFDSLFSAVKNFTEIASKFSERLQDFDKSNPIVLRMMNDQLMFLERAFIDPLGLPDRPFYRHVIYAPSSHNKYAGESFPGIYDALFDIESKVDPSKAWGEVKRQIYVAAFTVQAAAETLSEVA

For `O=C([O-])CC[C@H](NC(=O)N[C@@H](CCCCNC(=O)[C@H](Cc1ccc2ccccc2c1)NC(=O)C1CCC(CNC(=O)CN2CCN(CC(=O)[O-])CCN(CC(=O)[O-])CCN(CC(=O)[O-])CC2)CC1)C(=O)[O-])C(=O)[O-].[225Ac].[H+].[H+].[H+]` (stereo partly shown) [PSMA-617-Ac^225], at PSMA [1] (human, in vivo), the tolerable dose is recorded as 100 Kbq/kg and the “treatment activity above which severe xerostomia becomes the dose-limiting toxicity” value is given as “exceeded 100 kBq/kg per cycle”. On PSMA [1] (treatment activity 50 kBq/kg, patients with high tumor burden), the anti-tumor response entry is “insufficient anti-tumor response”. For the same molecule, at PSMA [1] (treatment activity 50 kBq/kg), the toxicity entry is on record as “without toxicity”.
On to `O=C([O-])CN1CCN(CC(=O)[O-])CCN(CC(=O)NCC2CCC(C(=O)N[C@@H](Cc3ccc4ccccc4c3)C(=O)NCCCC[C@H](NC(=O)N[C@@H](CCC(=O)O)C(=O)O)C(=O)O)CC2)CCN(CC(=O)[O-])CC1.[177Lu+3]` (stereo partly shown) [PSMA-617-^177Lu], for which the “administered cumulative 177Lu dose at which PSA declines begin” value on PSMA [2] (2-dose regimen at a 2 week interval) came out at 11.1 Gbq; on PSMA [2] (2-dose regimen at a 2 week interval (150 mCi×2)), 300 mCi. Also, the “maximum safe cumulative dose” value in series [3] is reported as 27-30 Gbq. Moreover, the “dose to the bone marrow / thrombocytopenia” value at PSMA [4] is reported as “does not cause thrombocytopenia”. In addition, the 177Lu internalization result in the series with LNCaP cells and in the series with CWR22Rv1 cells was “internalized to a similar degree” throughout.
